Holding throughout (assay): NCI tumour cell line growth inhibition, 48 h
Assay [1] concerns HOP-62 NSCLC.
Assay [2] has as its system TK-10 renal.
Assay [3] deals with NCI-H226 lung.
For assay [4], the system named is T-47D breast.
For assay [5], the system named is NCI/ADR-RES ovarian.
Assay [6] deals with OVCAR-3 ovarian.
Assay [7] deals with DU-145 prostate.
In assay [8] the test system is SW-620 colon.
In assay [9] the test system is KM12 colon.
Assay [10] relates to ACHN renal.

Values joined by “and” are separate entries in the source; they are usually repeats but may differ in a detail not shown here. Equal entries are not always repeated.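 All cell lines were grown in 96-well plates and treated with compound for 48 hours. At the GI50, growth is halved. TGI is the concentration that stops growth completely.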 Some results are limits rather than exact numbers.

Turning to `N#Cc1ccc2c(-c3ccnc(NC4CC4)n3)c(-c3ccc(F)cc3)nn2c1`, the GI50 in [1], in assay [2], in [3], in assay [4], in assay [5] and in assay [6] was > 25 µM in each case. Also, the GI50 in assay [7], in assay [8], in [9] and in assay [10] was > 25 µM each time. Further, the TGI in assay [1], in [2], in assay [3], in [4], in assay [5] and in assay [6] was > 25 µM in each case. Also, the TGI in assay [7], in [8], in [9] and in [10] was > 25 µM each time.
`Cc1cnc(C(=O)Nc2nc3ccc(S(=O)(=O)Nc4ccc(C(C)(C)C)cc4)cc3[nH]2)cn1`: the GI50 was 0.785 µM in assay [1]; 2.53 µM in assay [2]; 0.723 µM in assay [3]; 0.592 µM in assay [4]; 0.37 µM in assay [5]; 0.308 µM in assay [6]. Moreover, the GI50 in assay [7] was 0.525 µM; in assay [8], 0.422 µM; in [9], 0.349 µM; in assay [10], 0.518 µM. Also, the TGI in assay [1] was 18.8 µM; in [2] it was 15.2 µM; in assay [3] it was 7.35 µM; in assay [4], 20.8 µM; in assay [5], 3.57 µM; in assay [6], 1.32 µM. Besides, the TGI in assay [7] was 4.51 µM; in [8], 13.9 µM; in assay [9], 11 µM; in assay [10], 14.2 µM.
On to `O=C1OC(c2ccccc2)=N/C1=C\c1ccccc1`, for which the TGI in assay [1] was > 100 µM and 73.5 µM; in assay [2] it was > 100 µM; in assay [3], > 100 µM and 58.2 µM; in assay [4], > 100 µM; in [5], > 100 µM and 76.9 µM; in [6] it was > 100 µM. In addition, the TGI was > 100 µM in assay [7]; > 100 µM in assay [8]; > 100 µM and 62.2 µM in assay [9]; > 100 µM in assay [10]. The GI50 in assay [8] was > 100 µM and 35.5 µM.
Regarding `COC(=O)[C@]12CC[C@@H](C)[C@H](C)[C@@H]1C1=CC[C@@H]3[C@@]4(C)C[C@@H](OC(C)=O)[C@H](OC(C)=O)[C@@](C)(COC(C)=O)[C@@H]4[C@H](O)C[C@@]3(C)[C@]1(C)CC2`, the GI50 in assay [1] was 3.25 µM; in assay [2], 3.08 µM; in assay [3], 5.09 µM; in assay [4], 1.03 µM; in assay [5], 3.16 µM; in [6], 2.3 µM. The GI50 was 3.55 µM in [7], 0.892 µM in [8], 1.03 µM in assay [9] and 2.71 µM in assay [10]. Besides, the TGI was > 100 µM in assay [1]; > 100 µM in assay [2]; > 100 µM in [3]; 8.04 µM in assay [4]; > 100 µM in [5]; > 100 µM in assay [6]. The TGI in assay [7], in assay [8], in [9] and in [10] was > 100 µM in each case.
Turning to `COc1ccccc1NC(=O)c1sc2ncn(CCOc3ccccc3)c(=O)c2c1C`, the GI50 was 15.6 µM in assay [1]; > 50 µM in [2]; > 50 µM in assay [4]; 1.76 µM in assay [5]; 2.91 µM in assay [6]; > 50 µM in [7]. Also, the figures for the GI50 in [8], in [9] and in assay [10] were 2.33 µM, 1.43 µM and 6.01 µM, respectively. In addition, the TGI in assay [1], in assay [2], in [4], in assay [5], in assay [6] and in assay [7] was > 50 µM in each case. Besides, the TGI in assay [8], in [9] and in assay [10] was > 50 µM each time.
As to `ClC/C=C/CSc1ncnc2nc[nH]c12`, the GI50 in assay [1], in [3], in [4], in [5], in assay [6] and in assay [7] was > 100 µM in each case. The GI50 in assay [8], in [9] and in assay [10] was > 100 µM throughout. Further, the TGI in [1], in [3], in assay [4], in assay [5], in [6] and in assay [7] was > 100 µM throughout. The TGI in assay [8], in [9] and in [10] was > 100 µM throughout.
As to `O=C(CC1(O)C(=O)Nc2ccc(Cl)cc21)c1ccc(C(=O)NCC2CCC3(CC2)OOC2(CCCCC2)OO3)cc1` (stereo unspecified), the GI50 was 0.445 µM in assay [1]; 1.78 µM in assay [2]; 13.1 µM in [3]; 1.57 µM in [4]; 11.8 µM in assay [5]; 2 µM in assay [7]. Also, the figures for the GI50 in assay [8] and in [9] were 2.13 µM and 1.77 µM, respectively. The TGI in assay [1] stood at 2 µM; in assay [2], 3.28 µM; in [3], 41.2 µM; in assay [4], 5.37 µM; in assay [5], 45.5 µM; in assay [7], 6.49 µM. For the same molecule, the values for the TGI in [8] and in [9] were 4.61 µM and 5.22 µM, respectively.
Turning to `Cc1ccc2nc(CN(CCN(Cc3nc4ccc(C)cc4[nH]3)Cc3nc4ccc(C)cc4[nH]3)Cc3nc4ccc(C)cc4[nH]3)[nH]c2c1`, the GI50 in [1] was 1.83 µM; in [2], 1.48 µM; in assay [3], 1.82 µM; in assay [4] it was 1.71 µM; in assay [5] it was 1.89 µM; in assay [6], 1.84 µM. Besides, the GI50 in [7] was 1.79 µM; in assay [9], 1.77 µM; in [10] it was 1.6 µM. Besides, the TGI turned out to be 3.24 µM in assay [1]; 2.95 µM in [2]; 3.21 µM in assay [3]; 3.12 µM in [4]; 3.36 µM in assay [5]; 3.31 µM in assay [6]. The TGI amounted to 3.18 µM in assay [7], 3.18 µM in assay [9] and 2.94 µM in [10].

Source of the values: PubChem BioAssay (NCI).
